Data published in patent US8575089B2, “Composition for preventing or treating inflammation” (University-Industry Cooperation Group of Kyung Hee, priority 2009, dated 2013).
Where no end group is shown, it is not given here.

Legend:
[1] = test system: CD4+ T cell isolated from peripheral blood; assay: IL-6 and IL-10 expression (ELISA) in CD4+ T cells treated with SP; format: cell-based, C57b1/6 mice; conditions: CD4+ T cell in T-cell activation media; SP as Example 1-(1); 4.5, 10, 24 hours; FIG. 2
Description: [The procedure below names another cell line; the source says it served here with some conditions changed.] Peripheral blood was collected from C57b1/6 mice (8 weeks, sex; male, n=5, Average Weight; 20 g), diluted doubly with PBS, carefully placed on Ficoll in a tube, and then centrifuged at 2200 rpm for 20 minutes. By centrifuging, from the bottom, an erythrocyte layer, a ficoll layer, a mononuclear cell layer, and a plasma layer were obtained in order. The mononuclear cell layer and plasma layer were isolated, excluding the erythrocyte layer and ficoll layer, and then washed one time with PBS. Then, the number of cells was counted; the cells with a concentration of 1×10^5/0.2 ml were seeded onto T-cell activation media (lymphocyte activation media; RPMI, 10% FBS, 100 μM 2-mercaptoetanol, 20 μg/ml ConA); then the cells were cultured at an incubator of 37° C.; and then culture supernatant was taken at 4.5 hours, 10 hours, and 24 hours. For SP-treated group, 10 nmole/kg of SP dissolved in a physiological saline was treated to T-cell activation media. […] After 30 minutes, 100 μl of stop codon was treated to stop the reaction; the optical density was measured at 450 nm; the amounts of cytokines were converted based on a protein conversion formula by a standard sample; and then the results were shown in FIG. 1. […]

[2] = test system: mononuclear cells in blood; assay: Corneal epithelial burn model: number of mononuclear cells in blood; format: in vivo, New Zealand white rabbit; conditions: rabbit, alkali burn of cornea; 5 nmole/kg SP i.v. immediately and 24 hours after burning; vs continuously increased without SP; FIG. 4
Description: Ketalar (50 mg/ml, Yuhan Corporation) and Rompun (23.32 mg (Xylazine hydrochloride)/ml, Bayer Korea Corporation) were mixed in a rate of 2:1, and then total 900 μl (Ketalar 600 μl: Rompun 300 μl) was injected into muscles of rabbits (New Zealand white rabbit, Male, 2.5 kg, n=4). After the intramuscular injection, 300 μl (Ketalar 200 μl: Rompun 100 μl) of the same anesthetic drug was injected in the rabbit's ear vein.
A 6 mm paper disc fully wetted by 1N NaOH was contacted to a limbus part of rabbit's cornea for 10 seconds. After alkali burning, corneal epithelium was removed in a size of the paper disc. The rabbit's eyes were quickly washed with a physiological saline immediately after alkali burning. At the same time, 5 nmole/kg of SP dissolved in a physiological saline was intravenously injected, and then after 24 hours, was injected once more (immediately after burning and at 24 hours after burning). For the control, PBS with the same volume was injected (injection Volume: 1 ml).
Peripheral blood was collected from ear veins in 10 ml at one, three, five and seven days after alkali burning. […]
The blood obtained from the above step was diluted twice with PBS, and then carefully put on Ficoll in a tube. […] Then, after adding 30 ml of PBS and centrifuging (washing step), the number of cells was counted to confirm the number of cells per 1 ml and then the results were shown in FIG. 4.

[3] = test system: pancreas beta cells; assay: Streptozotocin-induced Type I diabetes: insulin IHC staining of pancreas; format: in vivo, ICR mouse
[4] = test system: mononuclear cells isolated from peripheral blood; assay: IL-6 and IL-10 expression (ELISA) in peripheral blood mononuclear cells treated with SP; format: cell-based, C57b1/6 mice; conditions: peripheral blood mononuclear cells in T-cell activation media (ConA); 10 nmole/kg SP; 4.5, 10, 24 hours; FIG. 1
Description: Peripheral blood was collected from C57b1/6 mice (8 weeks, sex; male, n=5, Average Weight; 20 g), diluted doubly with PBS, carefully placed on Ficoll in a tube, and then centrifuged at 2200 rpm for 20 minutes. By centrifuging, from the bottom, an erythrocyte layer, a ficoll layer, a mononuclear cell layer, and a plasma layer were obtained in order. The mononuclear cell layer and plasma layer were isolated, excluding the erythrocyte layer and ficoll layer, and then washed one time with PBS. Then, the number of cells was counted; the cells with a concentration of 1×10^5/0.2 ml were seeded onto T-cell activation media (lymphocyte activation media; RPMI, 10% FBS, 100 μM 2-mercaptoetanol, 20 μg/ml ConA); then the cells were cultured at an incubator of 37° C.; and then culture supernatant was taken at 4.5 hours, 10 hours, and 24 hours. For SP-treated group, 10 nmole/kg of SP dissolved in a physiological saline was treated to T-cell activation media. […] After 30 minutes, 100 μl of stop codon was treated to stop the reaction; the optical density was measured at 450 nm; the amounts of cytokines were converted based on a protein conversion formula by a standard sample; and then the results were shown in FIG. 1.

What does the source list for “Substance-P (RPKPQQFFGLM; not fully specified; ends and bridges not checked; UniProt P20366 58-68, looked up)”?
expression level of IL-6 in culture supernatant [1]: no difference; expression of IL-10 in culture supernatant [1]: increased; total number of mononuclear cells per 1 ml blood [2]: decreased at seven days; diabetes lesion ([3]; STZ-induced diabetes, SP treated after inducing diabetes): becomes weak; progress of Type I diabetes ([3]; STZ-induced diabetes, SP treated when diabetes was induced): inhibits; death of beta cells secreting insulin ([3]; STZ-induced diabetes, mice sacrificed at 11 weeks, FIG. 12): inhibited; insulin secretion (Insulin IHC staining of pancreas) ([3]; group with injecting SP, mice sacrificed at 11 weeks, vs significantly low with only STZ, FIG. 12): high; expression level of IL-6 in culture supernatant [4]: no a significant difference; expression level of IL-10 in culture supernatant [4]: increased
